{
  "source": "patent US10434086B2",
  "about": "“Combination therapies with curaxins” (Incuron, Inc., priority 2014, dated 2019)",
  "key": {"[1]": {"system": "HepG2 hepatocellular carcinoma tumors", "test": "HepG2 study: CBL0137/sorafenib against HepG2 HCC tumor engrafts", "type": "in vivo, nude mice", "source_text": "(§1) Seventy and sixty female athymic nude mice were obtained for each H1975 Non-Small Cell Lung Cancer Xenograft study and split into treatment groups consisting of 10 animals per group (2 cages of 5 mice per cage).\n(§2) Preparation and subcutaneous implantation of tumor pieces: HepG2 tumors (passage 2 for HepG2 study and passage 1 for HepG2 (sub-dose CLB0137) study) or Hep3B tumors (passage 1 for Hep3B study and passage 9 for Hep3B (sub-dose CLB0137) study) were propagated in athymic nude mice and harvested from euthanized mice when they reached ˜500-900 mm^3. PDA tumors (passage 6) were propagated in SCID mice (both flanks) and harvested from euthanized mice when they reached ˜600-700 mm^3 in size. Harvested tumors were transferred to a sterile Petri dish containing RPMI-10% FBS medium or D-PBS plus penicillin/streptomycin. Enough media was added to bathe the tumor in order to ensure the viability of the transplant material. Tumors were dissected into 2 mm×2 mm cubes using a sterile scalpel. Care was taken to make the pieces as uniform in size and shape as possible. Tumor pieces were implanted into recipient mice immediately after being prepared.\n(§3) Tumor Size Measurements: Tumor size was measured by digital caliper in two dimensions (in mm): maximum length (l) and maximum width (w) taken perpendicular to one another. The measurements were used to calculate tumor volume according to the formula: tumor volume=(l×w2)/2 (w<l). The value obtained by this formula is also equal to the mass of the tumor in mg. Starting 2 days after tumor implantation, tumor measurements were made every 2-3 days prior to treatment initiation and then twice per week (e.g., on Day 1 (D1, the day of treatment initiation), D4, D8, D11, D15, D18, D22, D25, D29, D32, D36, D39, D43, D46, D50, D53 and D57). Tumor measurements were collected more frequently when tumor size approached the tumor size endpoint in order to prevent passing the endpoint between scheduled measurements.\n(§4) Administration of test and control articles: Mice were administered the designated solutions when the mean tumor volume per treatment group was ˜45-200 mm^3.\n(§5) The volume of the dosing solution administered orally or intravenously was 8 ml/kg of body weight, Intravenous injections were performed via the tail vein. Administration of drugs was done slowly without force on the syringe.\n(§6) Monitoring and Sample Collection: Twice daily, mice were monitored for mortality and morbidity for the duration of the experiment. […] All abnormal observations were documented and semi-quantitative scores were assigned for “body condition,” “posture,” and “activity.” Scores of 4, 3, 2, and 1 were assigned to normal conditions (4), and slightly (3), moderately (2) and severely (1) abnormal conditions, respectively. Cages were taken to a laminar flow hood and opened in order to clearly assess mouse activity.\nData analysis: For all study groups, maximum tumor growth inhibition was calculated for Day 11, 13, or 15 (Day X). […] For each tumor, relative tumor size was calculated relative to its size on Day 1 when treatment was initiated (i.e., fold tumor growth). To calculate the maximum tumor growth inhibition for each tumor, the following equation was used: 100−(fold tumor growth drug-treated Day X/mean fold tumor growth vehicle-treated Day X)*100. Differences in tumor sizes between groups were determined using ANOVA analysis (GraphPad Prism 5 Software) where “*” refers to P=0.01-0.05 (significant), “**” refers to P=0.001-0.01 (very significant) and “***” refers to P<0.001 (extremely significant), Differences that were not statistically significant are indicated with “ns”."}, "[2]": {"system": "HepG2 hepatocellular carcinoma tumors", "test": "HepG2 (sub-dose CBL0137) study", "type": "in vivo, nude mice", "source_text": "as §1, §2, §3, §4, §5, §6\nData analysis: For all study groups, maximum tumor growth inhibition was calculated for Day 11, 13, or 15 (Day X). […] For each tumor, relative tumor size was calculated relative to its size on Day 1 when treatment was initiated (i.e., fold tumor growth). To calculate the maximum tumor growth inhibition for each tumor, the following equation was used: 100−(fold tumor growth drug-treated Day X/mean fold tumor growth vehicle-treated Day X)*100. Differences in tumor sizes between groups were determined using ANOVA analysis (GraphPad Prism 5 Software) where “*” refers to P=0.01-0.05 (significant), “**” refers to P=0.001-0.01 (very significant) and “***” refers to P<0.001 (extremely significant), Differences that were not statistically significant are indicated with “ns”. […] Tumor growth delay (T−C) was calculated by subtracting the median time for the control to reach the 1000 mm^3 size endpoint from that of the median time for the treated groups to reach the size endpoint."}, "[3]": {"system": "Hep3B hepatocellular carcinoma tumors", "type": "in vivo, nude mice", "source_text": "as §1, §2, §3, §4\nThe volume of the dosing solution administered orally or intravenously was 8 ml/kg of body weight, Intravenous injections were performed via the tail vein. […]\n(§7) Monitoring and Sample Collection: Twice daily, mice were monitored for mortality and morbidity for the duration of the experiment. […] All abnormal observations were documented and semi-quantitative scores were assigned for “body condition,” “posture,” and “activity.” Scores of 4, 3, 2, and 1 were assigned to normal conditions (4), and slightly (3), moderately (2) and severely (1) abnormal conditions, respectively. […]\n(§8) Data analysis: For all study groups, maximum tumor growth inhibition was calculated for Day 11, 13, or 15 (Day X). […] For each tumor, relative tumor size was calculated relative to its size on Day 1 when treatment was initiated (i.e., fold tumor growth). […] Differences in tumor sizes between groups were determined using ANOVA analysis (GraphPad Prism 5 Software) where “*” refers to P=0.01-0.05 (significant), “**” refers to P=0.001-0.01 (very significant) and “***” refers to P<0.001 (extremely significant), Differences that were not statistically significant are indicated with “ns”. […] Tumor growth delay (T−C) was calculated by subtracting the median time for the control to reach the 1000 mm^3 size endpoint from that of the median time for the treated groups to reach the size endpoint."}, "[4]": {"system": "Hep3B hepatocellular carcinoma tumors", "test": "Hep3B (sub-dose CBL0137) study", "type": "in vivo, nude mice", "source_text": "as §1, §2\nTumor Size Measurements: Tumor size was measured by digital caliper in two dimensions (in mm): maximum length (l) and maximum width (w) taken perpendicular to one another. The measurements were used to calculate tumor volume according to the formula: tumor volume=(l×w2)/2 (w<l). The value obtained by this formula is also equal to the mass of the tumor in mg. […]\nas §7, §8"}, "HepG2 and Hep3B": {"system": "HepG2 and Hep3B", "settings": "HepG2 only (Hep3B is p53 null)", "source_text": "Specifically, the Western blots monitored expression of spt16, SSRP1, p53, p21, P-ERK, ERK, Mcl-1, and GAPDH (control). Panel A corresponds to the tumor-bearing nude mice from the HepG2 study whereas Panel B corresponds to the tumor-bearing nude mice from the Hep3B study.\nSpecifically, the Western blots monitored the effect of drug treatment on expression of spt16, SSRP1, p53, p21, P-ERK, ERK, Mcl-1, and GAPDH (control) proteins, of which most are involved in cell cycle progression and regulation."}, "[5]": {"system": "NF-κB target genes (IL-8 and TNF)", "test": "Real-time PCR of NF-κB target genes (IL-8 and TNF) in HepG2 and Hep3B", "type": "cell-based", "settings": "2 h after exposure; basal and TNF-induced; both HCC cell lines"}, "[6]": {"settings": "median time to reach tumor size endpoint, treated minus control"}},
  "note": "Where two headings read alike, the source gives them in different places.",
  "data": [
    {"smiles": "CNC(=O)c1cc(Oc2ccc(NC(=O)Nc3ccc(Cl)c(C(F)(F)F)c3)cc2)ccn1", "note": "[sorafenib]", "values": [
      {"measurement": "T/C %", "setting": "[1]; Day 15, sorafenib 15 mg/kg po daily, CBL0137 70 mg/kg iv Q4d", "result": 72.6, "unit": "%"},
      {"measurement": "mean change in tumor volume versus Day 1", "setting": "[1]; Day 15, sorafenib 15 mg/kg po daily, CBL0137 70 mg/kg iv Q4d, vehicle 9.0-fold", "result": 8.4, "unit": "fold"},
      {"measurement": "antitumor efficacy (in words)", "setting": "[1]; HepG2 study summary", "result": "had no effect against HepG2 tumor growth"},
      {"measurement": "median survival time (MST)", "setting": "[1]; HepG2 study, sorafenib 15 mg/kg po daily, CBL0137 70 mg/kg iv Q4d, 4 weeks, vehicle 15 days", "result": 15, "unit": "days"},
      {"measurement": "Tumor growth delay (T−C)", "setting": "[1]; [6]", "result": 5.65, "unit": "days"},
      {"measurement": "tumors that grew showing some degree of regression during the course of treatment", "setting": "[1]; sorafenib 15 mg/kg po daily, CBL0137 70 mg/kg iv Q4d, vehicle 0/16", "result": "0/14"},
      {"measurement": "mean change in tumor volume versus Day 1", "setting": "[2]; Day 13, vehicle 13.2-fold", "result": 3.2, "unit": "fold"},
      {"measurement": "antitumor efficacy (in words)", "setting": "[2]; HepG2 (sub-dose CBL0137) study summary", "result": "effectively suppressed HepG2 tumor growth"},
      {"measurement": "tumor growth inhibition", "setting": "[2]; between Days 1 and 13", "result": 76, "unit": "%"},
      {"measurement": "median time to reach the tumor size endpoint", "setting": "[2]; by extrapolation from exponential growth curves, vehicle 12.6 days", "result": 29.6, "unit": "days"},
      {"measurement": "Tumor growth delay (T−C)", "setting": "[2]; [6]", "result": 17, "unit": "days"},
      {"measurement": "median survival time (MST)", "setting": "[2]; sorafenib 30 mg/kg po daily, CBL0137 60 mg/kg iv Q4d, 4 weeks, vehicle 13 days", "result": 27.5, "unit": "days"},
      {"measurement": "tumor growth inhibition", "setting": "[3]; Day 11", "result": 67.2, "unit": "%"},
      {"measurement": "T/C %", "setting": "[3]; Day 11, size relative to vehicle-treated tumors", "result": 33.4, "unit": "%"},
      {"measurement": "mean change in tumor volume versus Day 1", "setting": "[3]; Day 11, vehicle 9.08-fold", "result": 2.98, "unit": "fold"},
      {"measurement": "antitumor efficacy (in words)", "setting": "[3]; Hep3B study summary", "result": "efficacious in suppressing growth of Hep3B engrafts"},
      {"measurement": "median survival time (MST)", "setting": "[3]; sorafenib 30 mg/kg po daily, CBL0137 60 mg/kg iv Q4d, 4 weeks, vehicle 11 days", "result": 25, "unit": "days"},
      {"measurement": "mean change in tumor volume versus Day 1", "setting": "[4]; Day 15, vehicle 21.0-fold", "result": 10.2, "unit": "fold"},
      {"measurement": "tumor growth inhibition", "setting": "[4]; between Days 1 and 15", "result": 51.4, "unit": "%"},
      {"measurement": "antitumor efficacy (in words)", "setting": "[4]; dT, time to endpoint, growth delay, T/C %", "result": "stronger beneficial effect"},
      {"measurement": "median survival time (MST)", "setting": "[4]; sorafenib 30 mg/kg po daily, CBL0137 50 mg/kg iv Q4d, 4 weeks, vehicle 14.5 days", "result": 21.5, "unit": "days"},
      {"measurement": "induction of p53 and p21 by CBL0137 (Western blot)", "setting": "HepG2 and Hep3B", "result": "blocked this induction"},
      {"measurement": "expression of NF-κB target genes (IL-8 and TNF)", "setting": "[5]", "result": "have an effect on expression of NF-κB target genes, albeit less than CBL0137"}
    ]}
  ]
}
